These results are taken from patent publication US8895549B2, “Aminoalcohol substituted 2,3-dihydroimidazo[1,2-c]quinazoline derivatives useful for treating hyper-proliferative disorders and diseases associated with angiogenesis” (Bayer Intellectual Property GmbH, priority 2010, dated 2014).

The inhibition is the change of the read-out against control, counted positive when it falls. The IC50 is the concentration needed to halve the response being measured.

Test [1] addresses PI3Kβ (complex of human p110β and human p85α) (Homo sapiens (Human), UniProt P42338). The test is described as follows: PI3Kβ kinase assay (HTRF-based PI3K inhibition assay).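 As to all read-outs here: Kinase-made PIP3 detected by HTRF, displacing biotinylated PIP3 tracer from a complex of Europium anti-GST antibody, GST-fused PH domain and Streptavidin-APC, read as Europium-to-APC energy transfer.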 Conditions: for inhibition at 0.93 µM: 0.93 μM compound, read-out: PI3K beta average % Inhibition at 0.93 μM; for IC50: 10 μM ATP, 10 μM PIP2, 20 min at 22° C., read-out: average IC50 in the PI3K beta biochemical assay; for PI3K beta average IC50/PI3K alpha average IC50: ratio of beta IC50 to alpha IC50. It counts as biochemical. In general terms: TR-FRET usually uses a lanthanide donor and a delayed reading to cut background.
Text: (§1) Determination of % Inhibition and IC50 Values of Compounds in PI3Kα Kinase Assay
PI3Kα inhibitory activity of compounds of the present invention was quantified employing the HTRF based PI3K inhibition assay as described below.
(§2) As reagents for the kinase reaction itself and the quantification of the reaction product, the PI3-Kinase HTRF Assay kit from Millipore (#33-017) was used. With this kit the phosphatidylinositol 3,4,5-trisphosphate (PIP3) generated in the kinase reaction is detected by displacement of a biotinylated ligand from an energy transfer complex consisting of a Europium-labeled anti-GST monoclonal antibody, a GST-tagged PH domain, biotinylated PIP3 and Streptavidin-Allophycocyanin (APC).
For the assay 50 nL of a 80-fold concentrated solution of the test compound in DMSO was pipetted into a black low volume 384-well microtiter plate (Greiner Bio-One, Frickenhausen, Germany), 3 μl of a solution of PI3Kβ and phosphatidylinositol-4,5-bisphosphate (PIP2, 13.8 μM=> final conc. in 4 μl reaction volume=10 μM) in 1× reaction buffer (exact composition not disclosed by the vendor) were added and the mixture was incubated for 15 min at 22° C. to allow pre-binding of the test compounds to the enzyme before the start of the kinase reaction. The amount of PI3Kβ was chosen to have the enzyme reaction in the linear range and depended on the activity of the individual lot, typical concentrations in assay were in the range of 120 ng/mL. Then the kinase reaction was started by the addition of 1 μL of a solution of adenosine triphosphate (ATP, 40 μM=> final conc. in the 4 μl assay volume is 10 μM) in reaction buffer and the resulting mixture was incubated for a reaction time of 20 min at 22° C.
The reaction was stopped by the addition of 1 μL of an stop solution (containing the biotinylated PIP3 used as a tracer). Then 1 μL detection mix (containing a Europium-labeled anti-GST monoclonal antibody, a GST-tagged PH domain, and Streptavidin-Allophycocyanin) was added and resulting mixture was incubated for 3 h at 22° C. to allow the formation of complexes between the detection reagents and either the PIP3 generated in the kinase reaction, or the biotinylated PIP3 added with the stop solution. Subsequently the amount of energy transfer complex consisting of a Europium-labeled anti-GST monoclonal antibody, a GST-tagged PH domain, biotinylated PIP3 and Streptavidin-Allophycocyanin (APC) was evaluated by measurement of the resonance energy transfer from the Europium-labeled anti-GST monoclonal antibody to the Streptavidin-Allophycocyanin. Therefore, the fluorescence emissions at 620 nm and 665 nm after excitation at 350 nm were measured using a TR-FRET reader, e.g., a Pherastar (BMG Labtechnologies, Offenburg, Germany) or a Viewlux (Perkin-Elmer). The ratio of the emissions at 665 nm and at 622 nm were taken as the measure for the amount of biotinylated PIP3 bound to the GST-tagged PH domain, which is negatively correlated with the amount of PIP3 generated.

The target of test [2] is PI3Kα (complex of human p110α and human p85α) (Homo sapiens (Human), UniProt P42336). Put plainly: PI3Kα kinase assay (HTRF-based PI3K inhibition assay).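 As to all read-outs here: PIP3 product detected by HTRF, reading resonance energy transfer from Europium-labeled anti-GST antibody to Streptavidin-APC, as displacement of biotinylated PIP3 tracer from the GST-PH domain complex.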 The note with it: for inhibition at 0.93 µM: 0.93 μM compound, read-out: PI3K alpha average % Inhibition at 0.93 μM; for IC50: 10 μM ATP, 10 μM PIP2, 20 min at 22° C., read-out: average IC50 in the PI3K alpha biochemical assay. The class given is biochemical.
Text: as §1
PI3Kα inhibitory activity of compounds of the present invention was quantified employing the HTRF-based PI3K inhibition assay as described below.
as §2
For the assay 50 nL of a 80-fold concentrated solution of the test compound in DMSO was pipetted into a black low volume 384-well microtiter plate (Greiner Bio-One, Frickenhausen, Germany), 3 μL of a solution of PI3Kα and phosphatidylinositol-4,5-bisphosphate (PIP2, 13.8 μM=> final conc. in 4 μl reaction volume=10 μM) in 1× reaction buffer (exact composition not disclosed by the vendor) were added and the mixture was incubated for 15 min at 22° C. to allow pre-binding of the test compounds to the enzyme before the start of the kinase reaction. The amount of PI3Kα was chosen to have the enzyme reaction in the linear range and depended on the activity of the individual lot, typical concentrations in assay were in the range of 90 ng/mL. Then the kinase reaction was started by the addition of 1 μL of a solution of adenosine triphosphate (ATP, 40 μM=> final conc. in the 4 μL assay volume is 10 μM) in reaction buffer and the resulting mixture was incubated for a reaction time of 20 min at 22° C.
The reaction was stopped by the addition of 1 μL of an stop solution (containing the biotinylated PIP3 used as a tracer), then 1 μL detection mix (containing a Europium-labeled anti-GST monoclonal antibody, a GST-tagged PH domain, and Streptavidin-Allophycocyanin) was added and resulting mixture was incubated 3 h at 22° C. to allow the formation of complexes between the detection reagents and either the PIP3 generated in the kinase reaction, or the biotinylated PIP3 added with the stop solution. Subsequently, the amount of energy transfer complex consisting of a Europium-labeled anti-GST monoclonal antibody, a GST-tagged PH domain, biotinylated PIP3 and Streptavidin-Allophycocyanin (APC) was evaluated by measurement of the resonance energy transfer from the Europium-labeled anti-GST monoclonal antibody to the Streptavidin-Allophycocyanin. Therefore, the fluorescence emissions at 620 nm and 665 nm after excitation at 350 nm were measured using a TR-FRET reader, e.g., a Pherastar (BMG Labtechnologies, Offenburg, Germany) or a Viewlux (Perkin-Elmer). The ratio of the emissions at 665 nm and at 622 nm was taken as the measure for the amount of biotinylated PIP3 bound to the GST-tagged PH domain, which is negatively correlated with the amount of PIP3 generated.

Where a name gives a salt, the structure may show the parent alone.

Chain of PI3Kβ (complex of human p110β and human p85α) (P42338 whole entry, the tested form may be a part): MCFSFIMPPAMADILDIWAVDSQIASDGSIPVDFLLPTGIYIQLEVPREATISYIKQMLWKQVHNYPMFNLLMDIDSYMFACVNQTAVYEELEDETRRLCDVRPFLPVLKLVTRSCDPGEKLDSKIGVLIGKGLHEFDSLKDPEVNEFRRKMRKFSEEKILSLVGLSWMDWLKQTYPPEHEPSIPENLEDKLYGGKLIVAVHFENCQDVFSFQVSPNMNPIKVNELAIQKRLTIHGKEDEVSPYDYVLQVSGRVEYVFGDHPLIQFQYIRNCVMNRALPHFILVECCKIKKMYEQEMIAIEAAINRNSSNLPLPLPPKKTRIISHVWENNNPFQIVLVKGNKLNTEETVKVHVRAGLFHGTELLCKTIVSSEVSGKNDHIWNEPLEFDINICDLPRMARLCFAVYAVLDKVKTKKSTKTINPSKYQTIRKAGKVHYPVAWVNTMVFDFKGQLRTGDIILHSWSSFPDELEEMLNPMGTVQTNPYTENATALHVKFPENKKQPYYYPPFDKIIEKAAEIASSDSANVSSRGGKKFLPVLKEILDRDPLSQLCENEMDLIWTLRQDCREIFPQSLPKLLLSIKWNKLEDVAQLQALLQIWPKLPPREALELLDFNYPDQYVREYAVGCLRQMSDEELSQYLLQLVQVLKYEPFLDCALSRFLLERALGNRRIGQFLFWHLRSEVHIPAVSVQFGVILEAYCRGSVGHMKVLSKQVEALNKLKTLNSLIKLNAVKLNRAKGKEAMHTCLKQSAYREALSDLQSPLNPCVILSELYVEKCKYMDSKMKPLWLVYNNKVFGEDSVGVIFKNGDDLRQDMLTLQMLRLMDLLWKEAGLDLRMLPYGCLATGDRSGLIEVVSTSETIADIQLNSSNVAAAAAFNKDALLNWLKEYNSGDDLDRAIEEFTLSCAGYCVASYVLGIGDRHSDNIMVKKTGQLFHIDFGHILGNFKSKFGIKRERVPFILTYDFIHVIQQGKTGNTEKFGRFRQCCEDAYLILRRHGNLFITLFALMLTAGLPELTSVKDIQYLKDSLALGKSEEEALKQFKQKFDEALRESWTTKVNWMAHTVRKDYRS
Chain of PI3Kβ (complex of human p110β and human p85α) (P27986 whole entry partner, the tested form may be a part): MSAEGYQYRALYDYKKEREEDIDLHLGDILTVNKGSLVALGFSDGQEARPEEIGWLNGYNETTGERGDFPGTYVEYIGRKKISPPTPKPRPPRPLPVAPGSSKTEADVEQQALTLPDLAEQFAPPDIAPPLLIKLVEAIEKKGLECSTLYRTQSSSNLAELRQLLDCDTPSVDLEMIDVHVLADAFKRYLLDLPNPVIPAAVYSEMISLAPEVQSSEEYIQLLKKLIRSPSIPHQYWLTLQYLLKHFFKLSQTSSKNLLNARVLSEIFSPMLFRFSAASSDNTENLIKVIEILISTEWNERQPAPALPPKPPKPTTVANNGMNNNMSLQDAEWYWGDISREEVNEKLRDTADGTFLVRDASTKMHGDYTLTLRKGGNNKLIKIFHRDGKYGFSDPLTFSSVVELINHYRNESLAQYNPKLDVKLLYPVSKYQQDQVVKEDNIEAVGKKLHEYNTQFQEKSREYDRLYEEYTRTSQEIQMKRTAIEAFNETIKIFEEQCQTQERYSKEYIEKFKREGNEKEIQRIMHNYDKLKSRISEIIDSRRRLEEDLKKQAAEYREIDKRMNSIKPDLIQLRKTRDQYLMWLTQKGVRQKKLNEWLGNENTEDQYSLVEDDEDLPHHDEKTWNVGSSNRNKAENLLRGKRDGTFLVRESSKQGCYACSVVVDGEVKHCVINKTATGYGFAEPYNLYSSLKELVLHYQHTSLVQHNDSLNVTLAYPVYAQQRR
Chain of PI3Kα (complex of human p110α and human p85α) (P42336 whole entry, the tested form may be a part): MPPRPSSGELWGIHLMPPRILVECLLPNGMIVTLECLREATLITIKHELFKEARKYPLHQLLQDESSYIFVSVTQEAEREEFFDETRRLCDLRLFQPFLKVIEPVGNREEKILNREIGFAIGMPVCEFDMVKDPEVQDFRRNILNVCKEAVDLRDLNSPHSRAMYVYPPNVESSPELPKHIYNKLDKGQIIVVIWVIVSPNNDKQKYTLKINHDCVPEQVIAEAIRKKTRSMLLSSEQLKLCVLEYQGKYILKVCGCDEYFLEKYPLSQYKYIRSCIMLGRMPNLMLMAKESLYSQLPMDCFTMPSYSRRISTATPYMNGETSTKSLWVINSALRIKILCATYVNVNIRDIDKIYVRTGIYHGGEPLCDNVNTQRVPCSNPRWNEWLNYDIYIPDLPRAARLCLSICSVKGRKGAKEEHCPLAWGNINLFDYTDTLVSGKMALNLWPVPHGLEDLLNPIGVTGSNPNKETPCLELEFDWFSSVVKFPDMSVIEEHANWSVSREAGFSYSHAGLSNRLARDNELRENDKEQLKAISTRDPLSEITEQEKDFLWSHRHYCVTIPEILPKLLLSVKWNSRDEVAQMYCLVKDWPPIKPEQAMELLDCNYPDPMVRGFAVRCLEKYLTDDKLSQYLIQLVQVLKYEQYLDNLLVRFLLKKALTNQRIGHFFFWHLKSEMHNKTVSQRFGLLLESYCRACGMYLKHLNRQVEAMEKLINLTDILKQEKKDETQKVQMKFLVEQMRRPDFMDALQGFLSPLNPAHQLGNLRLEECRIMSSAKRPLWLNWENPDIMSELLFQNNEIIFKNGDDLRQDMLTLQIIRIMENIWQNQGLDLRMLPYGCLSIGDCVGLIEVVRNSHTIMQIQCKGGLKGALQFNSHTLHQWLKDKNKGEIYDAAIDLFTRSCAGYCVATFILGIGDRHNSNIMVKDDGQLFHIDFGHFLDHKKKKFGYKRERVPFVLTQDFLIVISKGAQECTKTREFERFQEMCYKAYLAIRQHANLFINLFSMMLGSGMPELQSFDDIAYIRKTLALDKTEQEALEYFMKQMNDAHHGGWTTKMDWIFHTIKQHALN
Chain of PI3Kα (complex of human p110α and human p85α) (P27986 whole entry partner, the tested form may be a part): as the sequence (P27986 whole entry partner, the tested form may be a part) above

In the case of `COc1c(OC[C@H](O)CN2CCOCC2)ccc2c1N=C(NC(=O)c1ccc(N)nc1C)N1CCN=C21` [Example 23, 6-Amino-N-(8-{[(2R)-2-hydroxy-3-(morpholin-4-yl)propyl]oxy}-7-methoxy-2,3-dihydroimidazo[1,2-c]quinazolin-5-yl)-2-methylpyridine-3-carboxamide], in test [1], the inhibition at 0.93 µM was 119%, the half-maximal inhibitory concentration (IC50) lay within 10 to 50 nM and the “PI3K beta average IC50/PI3K alpha average IC50” value was 7.30. In addition, in test [2], the inhibition at 0.93 µM was found to be 105% and the 50% inhibitory concentration (IC50) is < 10 nM.

`COc1c(OC[C@H](O)CN2CCCC2)ccc2c1N=C(NC(=O)c1cncnc1)N1CCN=C21` [Example 24, N-(8-{[(2R)-2-hydroxy-3-(pyrrolidin-1-yl)propyl]oxy}-7-methoxy-2,3-dihydroimidazo[1,2-c]quinazolin-5-yl)pyrimidine-5-carboxamide]: in test [1], the inhibition at 0.93 µM amounted to 94.7%, the IC50 was in the range of 10 to 50 nM and the “PI3K beta average IC50/PI3K alpha average IC50” value is on record as 1.99. In test [2], the inhibition at 0.93 µM stood at 85.1% and the IC50 is 10 to 50 nM.

With `COc1c(OCC(O)CN2CCOCC2)ccc2c1N=C(NC(=O)c1cnc(N)nc1)N1CCN=C21` (stereo not shown) [Example 25, 2-Amino-N-{8-[2-hydroxy-3-(morpholin-4-yl)propoxy]-7-methoxy-2,3-dihydroimidazo[1,2-c]quinazolin-5-yl}pyrimidine-5-carboxamide], in test [1], the inhibition at 0.93 µM worked out at 93.3%, the IC50 was < 10 nM and the “PI3K beta average IC50/PI3K alpha average IC50” value was determined as 8.30. In test [2], the inhibition at 0.93 µM stood at 92.7% and the IC50 was < 10 nM.

As for `COc1c(OC[C@H](O)CN2C[C@@H](C)O[C@@H](C)C2)ccc2c1N=C(NC(=O)c1cnc(N)nc1)N1CCN=C21` [Example 27, 2-amino-N-[8-({(2R)-3-[(2R,6S)-2,6-dimethylmorpholin-4-yl]-2-hydroxypropyl}oxy)-7-methoxy-2,3-dihydroimidazo[1,2-c]quinazolin-5-yl]pyrimidine-5-carboxamide], in test [1], the inhibition at 0.93 µM came out at 102%, the IC50 was 10 to 50 nM and the “PI3K beta average IC50/PI3K alpha average IC50” value was 5.52. In test [2], the inhibition at 0.93 µM stood at 97.9% and the IC50 is < 10 nM.

As for `COc1c(OC[C@H](O)CN2CC3CCC(C2)O3)ccc2c1N=C(NC(=O)c1cnc(N)nc1)N1CCN=C21` [Example 28, 2-Amino-N-(8-{[(2R)-2-hydroxy-3-(8-oxa-3-azabicyclo[3.2.1]oct-3-yl)propyl]oxy}-7-methoxy-2,3-dihydroimidazo[1,2-c]quinazolin-5-yl)pyrimidine-5-carboxamide dihydrochloride], in test [1], the inhibition at 0.93 µM is 102% and the IC50 is < 10 nM. Besides, in test [2], the inhibition at 0.93 µM turned out to be 102% and the IC50 is < 10 nM.

On to `COc1c(OC[C@H](O)CN(C)C)ccc2c1N=C(NC(=O)c1cnc(N)nc1)N1CCN=C21` [Example 29, 2-Amino-N-(8-{[(2R)-3-(dimethylamino)-2-hydroxypropyl]oxy}-7-methoxy-2,3-dihydroimidazo[1,2-c]quinazolin-5-yl)pyrimidine-5-carboxamide], for which, in test [1], the inhibition at 0.93 µM was found to be 106%, the IC50 is < 10 nM and the “PI3K beta average IC50/PI3K alpha average IC50” value came out at 6.75. Further, in test [2], the inhibition at 0.93 µM was 102% and the IC50 is < 10 nM.

For the compound `COc1c(OC[C@H](O)CN2CCOCC2)ccc2c1N=C(NC(=O)c1cnc3[nH]cnc3c1)N1CCN=C21` [Example 30, N-(8-{[(2R)-2-Hydroxy-3-(morpholin-4-yl)propyl]oxy}-7-methoxy-2,3-dihydroimidazo[1,2-c]quinazolin-5-yl)-3H-imidazo[4,5-b]pyridine-6-carboxamide], in test [1], the inhibition at 0.93 µM was 108%, the IC50 fell in the range of 10 to 50 nM and the “PI3K beta average IC50/PI3K alpha average IC50” value is listed as 8.83. Besides, in test [2], the inhibition at 0.93 µM was 110% and the IC50 was < 10 nM.
